PubChem BioAssay AID180 (DTP/NCI, 2004)
“And” between values parts separate entries of the source, which are not always exact repeats. Equal values may be shown once.

System: BDF1 mice, Adenocarcinoma 755 s.c., tumor weight T/C
Experiment: NCI In Vivo Anticancer Drug Screen. Data for tumor model Adenocarcinoma 755 (subcutaneous) in B6D2F1 (BDF1) mice
Conditions: endpoint: mean tumor weight, schedule: Q01DX011 (ip), higher = larger tumour
Procedure, shortened: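 Readout: T/C, i.e. treated-group measurement over vehicle-control measurement. Endpoint is survival or tumor size in tumor-bearing mice given compound.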

[1] = dose: 500.0 mg/kg/injection, vehicle: methylcellulose (MC)
[2] = dose: 75.0 mg/kg/injection, vehicle: methylcellulose (MC)
[3] = dose: 150.0 mg/kg/injection, vehicle: methylcellulose (MC)
[4] = dose: 30.0 mg/kg/injection, vehicle: carboxymethylcellulose (CMC)
[5] = dose: 60.0 mg/kg/injection, vehicle: carboxymethylcellulose (CMC)
[6] = dose: 120.0 mg/kg/injection, vehicle: carboxymethylcellulose (CMC)
[7] = dose: 240.0 mg/kg/injection, vehicle: carboxymethylcellulose (CMC)

For `Cn1c(=O)c2c(ncn2CC(=O)O)n(C)c1=O`, the T/C (dose: 63.0 mg/kg/injection, vehicle: methylcellulose (MC)) was 106 % of control, the T/C (dose: 125.0 mg/kg/injection, vehicle: methylcellulose (MC)) was 89 % of control and the T/C (dose: 250.0 mg/kg/injection, vehicle: methylcellulose (MC)) was 112 % of control. The T/C [1] was 117 % of control.
In the case of `S=c1c2[nH]cnc2ncn1CCSC1=NC=NC2=NC=NC21` (configuration not stated), the T/C (dose: 4.0 mg/kg/injection, vehicle: methylcellulose (MC)) is reported as 61 % of control, the T/C (dose: 8.0 mg/kg/injection, vehicle: methylcellulose (MC)) is reported as 71 % of control and the T/C (dose: 16.0 mg/kg/injection, vehicle: methylcellulose (MC)) is reported as 19 % of control.
For `c1nc(SCCSc2ncnc3nc[nH]c23)c2[nH]cnc2n1`, the T/C (dose: 4.6 mg/kg/injection, vehicle: methylcellulose (MC)) was 93 % of control, the T/C (dose: 9.3 mg/kg/injection, vehicle: methylcellulose (MC)) was 86 % of control and the T/C (dose: 18.7 mg/kg/injection, vehicle: methylcellulose (MC)) was 74 % of control. For the same molecule, the T/C [2] was 1 % of control and the T/C [3] was 2 % of control.
With `O=C1C=Cc2ccc(O)cc2C1=O` the T/C (dose: 2.0 mg/kg/injection, vehicle: saline) was 103 % of control and the T/C (dose: 8.0 mg/kg/injection, vehicle: saline) was 50 % of control.
`COc1ccc(C(=O)OCC2OC(n3cnc4c(=S)nc[nH]c43)C(OC(=O)c3ccc(OC)cc3)C2OC(=O)c2ccc(OC)cc2)cc1` (configuration not stated) was tested, and the T/C (dose: 200.0 mg/kg/injection, vehicle: carboxymethylcellulose (CMC)) was 28 % of control, the T/C (dose: 400.0 mg/kg/injection, vehicle: carboxymethylcellulose (CMC)) was 2 % of control and the T/C (dose: 800.0 mg/kg/injection, vehicle: carboxymethylcellulose (CMC)) was 7 % of control.
With `Cn1c(N)nc2n[nH]nc2c1=O` the T/C [4] was 105 % of control, the T/C [5] was 119 % of control and the T/C (dose: 100.0 mg/kg/injection, vehicle: carboxymethylcellulose (CMC)) was 98 % of control. For the same molecule, the T/C [6] was 46 % of control and the T/C [7] was 97 % of control.
With `Nc1nc(Br)c2ncn(C3OC(CO)C(O)C3O)c2n1` (configuration not stated) the T/C [4] was 107 % of control, the T/C [5] was 86 % of control and the T/C [6] was 106 % of control. For the same molecule, the T/C [7] was 103 % of control.
With `Nc1nc(SCC(=O)c2ccccc2)c2ncn(C3OC(CO)C(O)C3O)c2n1` (configuration not stated) the T/C (dose: 37.5 mg/kg/injection, vehicle: methylcellulose (MC)) was 15 % of control, the T/C [2] was 5 % of control and the T/C [3] was 5 % of control.
`Nc1ncnc2c1ncn2C1CCCO1` (configuration not stated) was tested, and the T/C (dose: 18.7 mg/kg/injection, vehicle: saline) was 111 % of control, the T/C (dose: 37.5 mg/kg/injection, vehicle: saline) was 120 % of control and the T/C (dose: 75.0 mg/kg/injection, vehicle: saline) was 119 % of control. The T/C (dose: 150.0 mg/kg/injection, vehicle: saline) was 52 % of control and the T/C (dose: 300.0 mg/kg/injection, vehicle: saline) was 23 % of control.
With `C/C(=N\NC(=O)c1ccncc1)c1ccc(Br)cc1` the T/C (dose: 30.0 mg/kg/injection, vehicle: methylcellulose (MC)) was 44 % of control and 49 % of control, the T/C (dose: 120.0 mg/kg/injection, vehicle: methylcellulose (MC)) was 48 % of control and 50 % of control and the T/C (dose: 240.0 mg/kg/injection, vehicle: methylcellulose (MC)) was 32 % of control and 52 % of control. For the same molecule, the T/C [1] was 54 % of control.
With `Cc1cc(C)c(/C=N/Nc2nc3c(c(=O)n(C)c(=O)n3C)n2C)c(C)c1` the T/C [4] was 68 % of control and the T/C [5] was 106 % of control.
With `CCCCCCC(=O)NC1=C(N2CC2)C(=O)C(NC(=O)CCCCCC)=C(N2CC2)C1=O` the T/C (dose: 11.25 mg/kg/injection, vehicle: carboxymethylcellulose (CMC)) was 48 % of control and the T/C (dose: 45.0 mg/kg/injection, vehicle: carboxymethylcellulose (CMC)) was 4 % of control.
